Test results: US10939678B2, “Adjuvant compositions and related methods for reducing herbicide volatility” (BOARD OF TRUSTEES OF MICHIGAN STATE UNIVERSITY, priority 2015, dated 2021)
Counter-ions that a name gives are not always drawn.

What was measured:
[1] = approximate, by way of illustration; cited from earlier work
[2] = system: soybean plants (PIONEER 92M92); assay: Bioassay of herbicide volatility from sprayed wheat to soybean plants in plant growth chambers (visual soybean injury); assay type: in vivo; conditions: 1.12 kg a.i./ha, without any adjuvants
Source text: A wide range of soil, plant, environmental, and herbicide factors (e.g., vapor pressure and water solubility of herbicide, surface characteristics) can affect herbicide volatility from soils and plants. Comparison of the volatilization would be most readily visualized by appropriate bioassay systems. These examples illustrate a bioassay system for evaluating herbicide volatilization from plant substrates. In the bioassay system, a herbicide composition including a volatile growth regulator herbicide (2,4-D) and one or more adjuvants was applied foliarly to wheat plants (amber red wheat). Twenty minutes later, soybean plants (PIONEER 92M92 soybean plants) sensitive to the volatile growth regulator herbicide were placed in the middle of the sprayed wheat plants.
Measurement of herbicide volatility from wheat to soybean. Plant growth chambers formed from clear circular plastic containers (about 27 cm diameter) with a spacer pot in the middle were used to grow wheat plants (from amber red wheat seed) in a professional potting mix. […] The herbicide compositions were prepared and applied at a rate of 0.84 kg a.i./ha (active ingredient per hectare) at 93.5 L/ha (10 gal/acre) and 172 kPa (25 psi) using a flat fan nozzle tip (TEEJET XR8001E or equivalent; available from Spraying Systems, Co., Wheaton, Ill.).
Soybean plants (PIONEER 92M92) were seeded into 10 cm diameter round pots. A single pot with soybean plants was placed in the center of each circular plastic container 20 minutes after spraying the wheat with the respective herbicide treatment composition (i.e., with the soybean plant pot replacing the spacer pot present during wheat growth and herbicide composition application). Open clear plastic cylinders were then taped to the top of the circular containers and placed in a greenhouse. The open clear plastic cylinders were tall enough to add an open circumferential wall (about 28 cm high and having a circular top opening about 20 cm in diameter) to the plant growth chambers (i.e., with the height being relative to the soil surface for the wheat and soybean plants). Visual evaluation of soybean injury was evaluated 7, 10, 14, and 21 days after treatment/application (DAT) of the herbicide composition and continued growth under greenhouse conditions. Data were subjected to analysis of variance using PROC GLM in SAS and the results are the means of two experiments with four replications in each.
Similar trials were also performed using herbicide compositions with volatile dicamba volatile growth regulator herbicides (dimethylamine salt of dicamba (BANVEL) and diglycolamine salt of dicamba (CLARITY)) at 1.12 kg a.i./ha in place of 2,4-D and without any adjuvants.

SMILES: CCCCC(CC)COC(=O)COc1ccc(Cl)cc1Cl (stereo not drawn) [2,4-D 2-ethylhexyl ester]
- vapor pressure [1]: ~4.8×10^−4 Pa

SMILES: CCCCOCCOC(=O)COc1ccc(Cl)cc1Cl [2,4-D butoxyethyl ester]
- vapor pressure [1]: ~3.2×10^−4 Pa

SMILES: CC(C)OC(=O)COc1ccc(Cl)cc1Cl [2,4-D isopropyl ester]
- vapor pressure [1]: ~1.9×10^1 Pa

SMILES: COc1c(Cl)ccc(Cl)c1C(=O)O [diglycolamine salt of dicamba, 3,6-dichloro-2-methoxybenzoic acid]
- % injury of soybean plants from dicamba volatility ([2]; 7-DAT): about 28%
- % injury of soybean plants from dicamba volatility ([2]; 14-DAT): about 31%
- % injury of soybean plants from dicamba volatility ([2]; 21-DAT): about 41%

SMILES: COc1c(Cl)ccc(Cl)c1C(=O)O [dimethylamine salt of dicamba, 3,6-dichloro-2-methoxybenzoic acid]
- % injury of soybean plants from dicamba volatility ([2]; 7-DAT): ~39%
- % injury of soybean plants from dicamba volatility ([2]; 14-DAT): ~39%
- % injury of soybean plants from dicamba volatility ([2]; 21-DAT): about 41%
